What all share (assay type): in vivo
Test [1] deals with velvetleaf (Abutilon theophrasti). Description: Test B pre-/postemergence plant response. The settings on record: Abutilon theophrasti, 240 h, read-out: Plant response rating, Velvetleaf; for pest or weed control at 125 g/ha: 125 g ai/ha; for pest or weed control at 500 g/ha: 500 g ai/ha; for pest or weed control at 1000 g/ha: 1000 g ai/ha. The procedure, abridged: (§1)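 Greenhouse pots, loam/sand soil; compound formulated with surfactant in non-phytotoxic solvent. Preemergence soil spray and postemergence spray at 1–2 leaf stage run simultaneously. Visual injury, 0–100, about 10 days post-treatment.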

Test [2] relates to morningglory (Ipomoea spp.). The test can be described thus: Test B pre-/postemergence plant response. The settings on record: Ipomoea, 240 h, read-out: Plant response rating, Morningglory; for pest or weed control at 125 g/ha: 125 g ai/ha; for pest or weed control at 500 g/ha: 500 g ai/ha; for pest or weed control at 1000 g/ha: 1000 g ai/ha. The gist of the method: as §1
Test [3] concerns corn (Zea mays). Description: Test F pre-/postemergence plant response. The settings on record: scale 0 to 100. The procedure, abridged:
(§2)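 Two application timings were run side by side: soil surface treatment of freshly planted seed in silt loam, and foliar treatment of seedlings 2 to 18 cm high. Plants stayed in the greenhouse 14 to 21 days before visual 0–100 injury scoring against controls.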

Test [4] concerns Brazilian crabgrass (Digitaria horizontalis). The test can be described thus: Test F pre-/postemergence plant response. The settings on record: scale 0 to 100. The procedure, abridged:
as §2

Test [5] relates to fall panicum (Panicum dichotomiflorum). The test can be described thus: Test F pre-/postemergence plant response. The settings on record: scale 0 to 100. The procedure, abridged:
as §2

The subject of test [6] is arrowleaf sida (Sida rhombifolia). Description: Test F pre-/postemergence plant response. The settings on record: scale 0 to 100. The procedure, abridged:
as §2

Test [7] deals with palmer pigweed (Amaranthus palmeri). Description: Test F pre-/postemergence plant response. The settings on record: scale 0 to 100. The procedure, abridged: as §2
For test [8], the system named is sandbur (southern sandbur, Cenchrus echinatus). Description: Test F pre-/postemergence plant response. The settings on record: scale 0 to 100. The procedure, abridged: as §2
Test [9] has as its system hairy beggarticks (Bidens pilosa). Description: Test F pre-/postemergence plant response. The settings on record: scale 0 to 100. The procedure, abridged:
as §2

Where [10] appears, read: post-emergence, postemergence, 0 to 100 scale, 0 no effect, 100 complete control.
Setting [11] is: post-emergence, Postemergence, 0 to 100 scale (0 no effect, 100 complete control).
Where [12] appears, read: pre-emergence, Preemergence, 0 to 100 scale where 0 is no effect and 100 is complete control.
Where [13] appears, read: pre-emergence, Preemergence, 0 to 100 scale (0 no effect, 100 complete control).

Where two headings read alike, the source gives them in different places.

For `FC(F)(F)c1cc(-c2ccccc2Oc2ncc(Cl)cn2)on1` [Compound 63, 5-chloro-2-[2-[3-(trifluoromethyl)-5-isoxazolyl]phenoxy]pyrimidine], the pest or weed control at 125 g/ha in test [1] (setting [10]) was determined as 100%; in [1] (setting [12]) it was 70%; in [2] (setting [10]), 100%; in test [2] (setting [12]), 30%. In addition, the pest or weed control at 500 g/ha in test [1] (setting [11]) was found to be 100%; in test [1] (setting [12]) it was 90%; in test [2] (setting [11]), 100%; in [2] (setting [12]), 60%.

Turning to `Cc1ccc(Oc2ncc(Cl)cn2)c(-c2ccnc(C(F)(F)F)c2)c1` [Compound 24, 5-chloro-2-[4-methyl-2-[2-(trifluoromethyl)-4-pyridinyl]phenoxy]pyrimidine], the pest or weed control at 125 g/ha stood at 40% in [1] (setting [10]), 0% in test [1] (setting [12]), 50% in [2] (setting [10]) and 0% in [2] (setting [12]). Moreover, the pest or weed control at 500 g/ha in [1] (setting [11]) worked out at 70%; in test [1] (setting [13]), 0%; in [2] (setting [11]) it was 100%; in test [2] (setting [13]) it was 0%.

Consider `Fc1ccc(Oc2ncc(Cl)cn2)c(-c2cc(C(F)(Cl)Cl)on2)c1` [Compound 221], for which the “Plant response rating, Corn” value in test [3] (16 g ai/ha Postemergence) is given as 5; in test [3] (31 g ai/ha Postemergence), 10; in [3] (62 g ai/ha Postemergence) it was 10; in test [3] (125 g ai/ha Postemergence), 20. For the same molecule, the “Plant response rating, Crabgrass, Brazil” value in test [4] (16 g ai/ha Postemergence) turned out to be 20; in [4] (31 g ai/ha Postemergence), 25; in [4] (62 g ai/ha Postemergence) it was 45; in [4] (125 g ai/ha Postemergence), 75. The “Plant response rating, Panicum, Fall” value was 10 in test [5] (16 g ai/ha Postemergence), 15 in [5] (31 g ai/ha Postemergence), 40 in [5] (62 g ai/ha Postemergence) and 60 in [5] (125 g ai/ha Postemergence). Moreover, the “Plant response rating, Arrowleaf Sida” value is 80 in [6] (16 g ai/ha Postemergence), 90 in test [6] (31 g ai/ha Postemergence), 98 in [6] (62 g ai/ha Postemergence) and 98 in test [6] (125 g ai/ha Postemergence). For the same molecule, the “Plant response rating, Pigweed, Palmer” value was found to be 85 in test [7] (16 g ai/ha Postemergence), 90 in test [7] (31 g ai/ha Postemergence), 100 in test [7] (62 g ai/ha Postemergence) and 100 in test [7] (125 g ai/ha Postemergence). For the same molecule, the “Plant response rating, Sandbur” value in [8] (16 g ai/ha Postemergence), in test [8] (31 g ai/ha Postemergence), in test [8] (62 g ai/ha Postemergence) and in [8] (125 g ai/ha Postemergence) was 0 in each case. In addition, the “Plant response rating, Beggarticks” value is 50 in [9] (16 g ai/ha Postemergence), 60 in test [9] (31 g ai/ha Postemergence), 70 in test [9] (62 g ai/ha Postemergence) and 70 in test [9] (125 g ai/ha Postemergence).

Regarding `Clc1ccc(-c2c(Cl)cccc2Oc2ncc(Cl)cn2)nc1` [Compound 23, 5-chloro-2-[3-chloro-2-(5-chloro-2-pyridinyl)phenoxy]pyrimidine], the pest or weed control at 125 g/ha was determined as 40% in [1] (setting [10]), 10% in test [1] (setting [12]), 20% in test [2] (setting [10]) and 0% in [2] (setting [12]). In addition, the pest or weed control at 500 g/ha in [1] (setting [11]) stood at 70%; in [1] (setting [13]) it was 50%; in [2] (setting [11]) it was 40%; in test [2] (setting [13]), 0%. Besides, the pest or weed control at 1000 g/ha stood at 70% in test [1] (setting [11]), 80% in test [1] (setting [13]), 70% in [2] (setting [11]) and 0% in test [2] (setting [13]).

On to `FC(F)(F)c1ccc(-c2ccccc2Oc2ncc(Cl)cn2)nc1` [Compound 27, 5-chloro-2-[2-[5-(trifluoromethyl)-2-pyridinyl]phenoxy]pyrimidine], for which the pest or weed control at 125 g/ha in test [1] (setting [10]) was found to be 70%; in [1] (setting [12]) it was 20%; in test [2] (setting [10]) it was 10%; in test [2] (setting [12]) it was 0%. For the same molecule, the pest or weed control at 500 g/ha in test [1] (setting [11]) worked out at 100%; in test [1] (setting [12]), 60%; in test [2] (setting [11]), 50%; in test [2] (setting [12]), 0%.

Take `FC(F)(F)c1ccnc(-c2ccccc2Oc2ncc(Cl)cn2)c1` [Compound 25, 5-chloro-2-[2-[4-(trifluoromethyl)-2-pyridinyl]phenoxy]pyrimidine]: the pest or weed control at 125 g/ha came out at 20% in test [1] (setting [10]), 10% in [1] (setting [12]), 10% in test [2] (setting [10]) and 0% in test [2] (setting [12]). The pest or weed control at 500 g/ha in test [1] (setting [11]) stood at 80%; in test [1] (setting [12]) it was 100%; in test [2] (setting [11]) it was 70%; in [2] (setting [12]), 10%.

As to `FC(F)(F)c1nccc(-c2ccccc2Oc2ncc(Br)cn2)n1` [Compound 21, 4-[2-[(5-bromo-2-pyrimidinyl)oxy]phenyl]-2-(trifluoromethyl)pyrimidine], the pest or weed control at 125 g/ha was determined as 20% in test [1] (setting [10]), 0% in test [1] (setting [12]), 20% in [2] (setting [10]) and 0% in test [2] (setting [12]). Also, the pest or weed control at 500 g/ha in test [1] (setting [11]) came out at 40%; in test [1] (setting [13]) it was 20%; in test [2] (setting [11]), 90%; in test [2] (setting [13]) it was 0%.

Regarding `Cc1ccc(Oc2ncc(Cl)cn2)c(-c2ccc(C(F)(F)F)nc2)c1` [Compound 22, 5-chloro-2-[4-methyl-2-[6-(trifluoromethyl)-3-pyridinyl]phenoxy]pyrimidine], the pest or weed control at 125 g/ha in test [1] (setting [10]) was determined as 50%; in [1] (setting [12]), 0%; in test [2] (setting [10]), 0%; in test [2] (setting [12]), 0%. Also, the pest or weed control at 500 g/ha was determined as 60% in [1] (setting [11]), 0% in [1] (setting [13]), 10% in test [2] (setting [11]) and 0% in test [2] (setting [13]).

For `FCc1cc(-c2ccccc2Oc2ncc(Cl)cn2)no1` [Compound 32, 5-chloro-2-[2-[5-(fluoromethyl)-3-isoxazolyl]phenoxy]pyrimidine], the pest or weed control at 125 g/ha in test [1] (setting [10]) came out at 90%; in test [1] (setting [12]), 90%; in test [2] (setting [10]), 70%; in test [2] (setting [12]), 0%. The pest or weed control at 500 g/ha in [1] (setting [11]) came to 100%; in test [1] (setting [12]), 100%; in test [2] (setting [11]) it was 90%; in [2] (setting [12]) it was 30%.

As to `FC(F)(F)Oc1ccc(-c2ccccc2Oc2ncc(Cl)cn2)cc1` [Compound 42, 5-chloro-2-[[4′-(trifluoromethoxy)[1,1′-biphenyl]-2-yl]oxy]pyrimidine], the pest or weed control at 125 g/ha in test [1] (setting [10]) turned out to be 100%; in test [1] (setting [12]), 50%; in [2] (setting [10]) it was 20%; in test [2] (setting [12]), 0%. In addition, the pest or weed control at 500 g/ha came out at 100% in test [1] (setting [11]), 70% in [1] (setting [12]), 60% in test [2] (setting [11]) and 0% in [2] (setting [12]).

The record behind these values is US10131652B2, “Pyrimidinyloxy benzene derivatives as herbicides” (E. I. DU PONT DE NEMOURS AND COMPANY, priority 2014, dated 2018).
